Measurements published in PubChem BioAssay (NCI).
Where “and” joins values, the source holds several entries; their conditions need not be identical. Equal values may be shown once.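 Cells were grown in 96-well plates and exposed to each compound for 48 hours at five concentrations; endpoints were interpolated linearly between bracketing concentrations, or set to the highest concentration if not reached. GI50 = concentration required for 50% inhibition of growth. TGI: total growth inhibition.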

Experiments:
Experiment in all cases: NCI tumour cell line growth inhibition, 48 h
SN12C renal = test system: SN12C renal
NCI-H226 lung = test system: NCI-H226 lung
LOX IMVI melanoma = test system: LOX IMVI melanoma
NCI-H23 lung = test system: NCI-H23 lung
CAKI-1 renal = test system: CAKI-1 renal
SK-OV-3 ovarian = test system: SK-OV-3 ovarian
MDA-MB-435 = test system: MDA-MB-435
UACC-257 melanoma = test system: UACC-257 melanoma
HT29 colon = test system: HT29 colon
RXF 393 renal = test system: RXF 393 renal

| SMILES | TGI (SN12C renal) | TGI (NCI-H226 lung) | TGI (LOX IMVI melanoma) | TGI (NCI-H23 lung) | TGI (CAKI-1 renal) | TGI (SK-OV-3 ovarian) | TGI (MDA-MB-435) | TGI (UACC-257 melanoma) | TGI (HT29 colon) | TGI (RXF 393 renal) | GI50 (SN12C renal) | GI50 (NCI-H226 lung) | GI50 (LOX IMVI melanoma) | GI50 (NCI-H23 lung) | GI50 (CAKI-1 renal) | GI50 (SK-OV-3 ovarian) | GI50 (MDA-MB-435) | GI50 (UACC-257 melanoma) | GI50 (HT29 colon) | GI50 (RXF 393 renal) |
| --- | --- | --- | --- | --- | --- | --- | --- | --- | --- | --- | --- | --- | --- | --- | --- | --- | --- | --- | --- | --- |
| COc1ccc(CC(C)NCC(O)c2ccc(O)c(NC=O)c2)cc1 (centres undefined) | > 100 µM | > 100 µM | > 100 µM | > 100 µM | > 100 µM | > 100 µM | > 100 µM | > 100 µM | > 100 µM | > 100 µM | – | – | – | – | – | – | – | – | – | – |
| CCn1c(-c2nonc2N)nc2cnc(Oc3cccc(NC(=O)c4ccc(OCCN5CCOCC5)cc4)c3)cc21 | > 25 µM | > 25 µM | > 25 µM | > 25 µM | > 17.9 µM | > 25 µM | > 25 µM | > 25 µM | > 25 µM | 12.9 µM | 6.26 µM | 1.24 µM | 3.1 µM | 4.9 µM | 0.116 µM | 7.33 µM | 7.39 µM | 7.09 µM | 10.7 µM | 1.31 µM |
| O=C(O)CN(CCN(CC(=O)O)CC(=O)O)CCN(CC(=O)O)CC(=O)O | 13.9 µM | 16.5 µM | 11.6 µM | 10.2 µM | 20.2 µM | 8.62 µM | 21.8 µM | 18.8 µM | 16.2 µM | 4.85 µM | 2.8 µM | 4.65 µM | 3.22 µM | 2.45 µM | 3.58 µM | 3.19 µM | 3.94 µM | 4.35 µM | 3.99 µM | 2.07 µM |
| CCOC(=O)c1sc2nc(=S)[nH]c(NC(N)=S)c2c1C | 26.9 µM | 21.1 µM | 31 µM | 37.1 µM | 61.7 µM | 61.3 µM | 70.3 µM | 47.3 µM | 52.9 µM | 47.2 µM | 13.1 µM | – | 15.4 µM | 14.8 µM | 31.4 µM | 20.6 µM | 30.5 µM | 24.6 µM | 20.1 µM | 19.1 µM |
| CC(C)Cn1cnc2c(N)nc3ccccc3c21 | > 100 µM | > 100 µM | > 100 µM | > 100 µM | > 100 µM | > 100 µM | > 100 µM | > 91.5 µM | > 100 µM | 97.2 µM | 78.8 µM | 73.6 µM | 25.7 µM | 37.1 µM | 34.8 µM | > 100 µM | 48.9 µM | 33.7 µM | 28.8 µM | 28.9 µM |
| CC(C)OC(=O)Nc1c([N+](=O)[O-])cc(C(F)(F)F)cc1[N+](=O)[O-] | > 100 µM | > 100 µM | > 100 µM | > 100 µM | > 100 µM | > 100 µM | > 100 µM | > 100 µM | > 100 µM | 62.3 µM | – | – | – | – | – | – | – | – | – | – |
| C=CC(=O)N1CCN([C@@H](CC2CC2)c2ccc([C@H](C)Nc3ncc4c(n3)N(CC)C(=O)OC4)cc2)CC1 | 31.8 µM | 34.7 µM | 26.6 µM | – | 19 µM | 30.2 µM | 23.6 µM | 25.5 µM | 50.7 µM | 20.9 µM | 13.7 µM | 14.1 µM | 11.1 µM | – | 5.23 µM | 14.5 µM | 11.1 µM | 10.9 µM | 17.5 µM | 4.62 µM |
| COc1cc(OC)c(OC)cc1/C=C/c1ccccn1 | > 10 µM | > 10 µM | > 10 µM | > 10 µM | > 10 µM | > 10 µM | > 10 µM | > 10 µM | > 10 µM | > 10 µM | – | – | – | – | – | – | – | – | – | – |
| CN1CCN(CCCOC(=O)c2c3c(n4ccccc24)C(=O)c2ncccc2C3=O)CC1 | 0.294 µM | 1.08 µM | 0.0334 µM | < 0.0172 µM | 0.366 µM | 0.0278 µM | 0.162 µM | 1.3 µM | 2.18 µM | 0.0303 µM | < 0.01 µM | 0.0178 µM | < 0.01 µM | < 0.01 µM | < 0.01 µM | < 0.01 µM | 0.0142 µM | 0.0219 µM | 0.164 µM | < 0.0118 µM |
| CCOc1cc(/C=C/C(=O)CC(=O)/C=C/c2ccc(OC(=O)CNc3nc4ccc(OC)cc4s3)c(OCC)c2)ccc1OC(=O)CNc1nc2ccc(OC)cc2s1 | 65.5 µM | 34.1 µM | 12.1 µM | 75.4 µM | 53.3 µM | 53 µM | 8.3 µM | 21.1 µM | 4.8 µM | 17 µM | 11.6 µM | 12.9 µM | 3.28 µM | 7.78 µM | 11.4 µM | 9.89 µM | 2.46 µM | 5.53 µM | 2.28 µM | 2.9 µM |
| CC[C@@H]1C(=O)N(C)c2cnc(Nc3ccc(C(=O)NC4CCC(N5CCN(CC6CC6)CC5)CC4)cc3OC)nc2N1C(C)C (some centres undefined) | > 10 µM and 15.1 µM | > 10 µM | 1.6 µM and 1.67 µM | > 10 µM and 2.99 µM | > 10 µM and 10.7 µM | 1.37 µM and 0.904 µM | 0.0134 µM | > 5.86 µM and 1.75 µM | 2.07 µM and 1.35 µM | > 9.08 µM and 4.9 µM | 0.0917 µM and 0.173 µM | – | 0.0254 µM and 0.0339 µM | 0.0158 µM and 0.028 µM | 0.109 µM and 0.39 µM | 0.046 µM and 0.0354 µM | < 0.01 µM | 0.22 µM and 0.046 µM | 0.00436 µM and < 0.01 µM | 0.0349 µM and 0.0393 µM |
| CCCCCCCCCCCC(c1ccccc1)[N+](C)(C)C (centres undefined) | 3.77 µM | 7.22 µM | 2.5 µM | 5.86 µM | 26 µM | 6.09 µM | 3.05 µM | 2.98 µM | 2.45 µM | 2.26 µM | 1.59 µM | 1.97 µM | 0.425 µM | 1 µM | 9.98 µM | 1.86 µM | 1.35 µM | 1.37 µM | 0.296 µM | 0.451 µM |
| N#CSc1c[nH]c2ccc(/C=C/C(=O)/C=C(O)/C=C/c3ccc4[nH]cc(SC#N)c4c3)cc12 | 10.9 µM | 5.86 µM | 1.83 µM | 13.6 µM | 4.1 µM | 80.2 µM | 7.03 µM | 12.5 µM | 3.84 µM | 2.93 µM | 1.92 µM | 1.95 µM | 0.483 µM | 2.95 µM | 1.58 µM | 20.3 µM | 2.06 µM | 2.79 µM | 1.42 µM | 0.538 µM |
| OC(c1ccccc1)c1c(-c2ccccc2)[nH]c(-c2ccccc2)c1C(O)c1ccccc1 (centres undefined) | 5.68 µM | 7.32 µM | 7.37 µM | 16.5 µM | 6.75 µM | 47.2 µM | 7.73 µM | 8.61 µM | 17.5 µM | 10.3 µM | – | – | – | – | – | – | – | – | – | – |
| Clc1cccc(-c2cc(-c3ccc4c(c3)OCCO4)[nH]n2)c1 | 40.1 µM | 92.1 µM | 39.4 µM | 57.4 µM | 36.3 µM | 46.7 µM | 26.1 µM | 55.3 µM | 31.6 µM | 46.1 µM | 5.38 µM | 29.5 µM | 4.43 µM | 8.66 µM | 1.61 µM | 5.42 µM | 0.578 µM | 25.4 µM | 0.952 µM | 7.34 µM |
| CN1CCC2(CC1)C(=O)Nc1cc(NC(=O)c3ccc4c(c3)C[C@@H]3C(C)(C)[C@H](O)[C@H](F)C[C@@]3(C)O4)ccc12 | > 100 µM | 49.3 µM | 12.5 µM | 42.5 µM | 18.7 µM | 27.3 µM | 13 µM | 21.2 µM | 36.8 µM | 10.6 µM | 13.2 µM | 14 µM | 0.55 µM | 10.6 µM | 1.34 µM | 1.71 µM | 1.31 µM | 3.21 µM | 2.94 µM | 0.0497 µM |
| C/C(=C1\C(=O)Nc2ccccc21)c1cccc(/C(C)=C2/C(=O)Nc3ccccc32)n1 | 54.7 µM | 24.5 µM | 31 µM | 60.5 µM | 24.3 µM | > 100 µM | 13.4 µM | 86 µM | > 100 µM | 58.7 µM | 15.6 µM | 4.53 µM | 8.4 µM | 16.8 µM | 2.34 µM | 26.2 µM | 2.57 µM | 9.43 µM | 8.09 µM | 12.3 µM |
| O=C(c1ccccc1)c1nc2ccc(Cl)cc2cc1C(Br)Br | 0.836 µM | 3.26 µM | 3.7 µM | 1.11 µM | 1.75 µM | 2.73 µM | 1.14 µM | 1.54 µM | 0.743 µM | 0.361 µM | – | – | – | – | – | – | – | – | – | – |
| CC(NC(=O)c1ccc(Cl)c(Cl)c1)c1ccc(-c2ccccc2)cc1 (centres undefined) | > 100 µM | 78.7 µM | > 100 µM | > 100 µM | > 100 µM | 90.4 µM | > 100 µM | > 100 µM | > 100 µM | 28 µM | – | – | – | – | – | – | – | – | – | – |
| CCCCCCCCCCCC1=NC(C)(C)CN1C(C)C | 16.7 µM | 22 µM | 6.85 µM | 11.3 µM | 14 µM | 20 µM | 5.33 µM | 6.02 µM | – | 5.33 µM | 4.04 µM | 6.16 µM | 2.32 µM | 2.98 µM | 2.68 µM | 7.51 µM | 2 µM | 2.49 µM | – | 2.17 µM |
